Measured values from paper PMC8496086 (RSC Chemical Biology, 2021).

Legend:
NNMT = conditions: read-out: reported IC50 value; cited from earlier work
[1] = system: A549 lung carcinoma cells; assay: MNA production in A549 cells; format: cell-based, human; conditions: 1 and 10 μM compound, 100 μM nicotinamide, 10 μM SAM, 1 h
[2] = system: human aortic endothelial cells (HAEC); assay: MNA production in HAEC cells; format: cell-based; conditions: 1 and 10 μM compound, 100 μM nicotinamide, 10 μM SAM, 3 hours

**Q.** Which results are given for `CNc1ccc(C(N)=O)cn1` [Peptide 6-MANA, 6-methylamino-nicotinamide]?
**A.** IC50 (NNMT): 588 ± 75 nM; effect on concentration of MNA [1]: significant reduction of MNA concentration; effect on concentration of MNA [2]: significant reduction of MNA concentration
